Laboratory results taken from patent publication US20070197599A1, “HYDROXYLAMINES AND DERIVATIVES AS ANTI-ANGIOGENIC AGENTS” (priority 2006, published 2007).
Like-named read-outs stand apart in the source and are kept apart here.

Experiments:
[1] = In vitro stability of Compound 1 in human plasma; format: in vitro ADME; details: for Concentration of Compound 1 in plasma: 1000 ng/mL added; for half-life at 1000 ng/mL: human, pooled human plasma
Procedure: (§1) The active metabolite of Compound 1 (Cyclopropanecarboxylic acid 1-hydroxy-2,2,6,6-tetramethyl-piperidin-4-yl ester) is TPH. The objective of this analysis was to determine the in vitro half-life of Compound 1 in rat, rabbit, dog, and human plasma under standardized incubation conditions.
(§2) Compound 1 was incubated with pooled rat, rabbit, dog, and human plasma for various times under standardized incubation conditions. Pre-labeled tubes containing pooled plasma from rats, rabbits, dogs, and humans were pre-incubated in a shaking 37° C. water bath. A Compound 1 solution was added to the tubes at a final concentration of 1000 ng/mL. Time zero samples (n=5) were immediately removed and transferred into tubes containing a stabilizer solution (DTPA, acetylcysteine and ascorbic acid), the LC/MS/MS assay internal standard and methanol. […] The tubes were vortexed, placed on ice, followed by centrifugation. One hundred-μL aliquots of the supernatant were transferred into HPLC sample vials. Additional tubes (n=5 at each time point) were incubated for 5, 10, 20, 30, 60, 120, and 240 minutes at 37° C. and thereafter processed. The amount of Compound 1 and TPH in each incubated sample was quantified using validated LC/MS/MS assays.

[2] = Single-dose 10-minute intravenous infusion toxicokinetics in Sprague-Dawley rats; format: in vivo; details: for Cmax: in vivo, read-out: Cmax of Compound 1; for Cmax / Tmax: 10-minute iv infusion; for concentration at 0.167 hr: 0.167 hr from start of infusion; for Tmax: read-out: Tmax of Compound 1
Procedure: Blood for toxicokinetic evaluations was collected at pre-determined time points during and after the infusion.
All pharmacokinetic analyses were performed using Kinetica®, version 4.2 (Innaphase, Philadelphia, Pa.).
Cmax is the observed maximum plasma concentration
Tmax is the time Cmax is reached
T1/2 is the elimination half-life
The plasma concentrations were rounded to the nearest tenth of a ng/mL before the calculations. […] Nominal time points were used for all calculations.

[3] = In vitro stability of Compound 1 in rat plasma; format: in vitro ADME; details: for Concentration of Compound 1 in plasma: 1000 ng/mL added; for half-life at 1000 ng/mL: rat, pooled rat plasma
Procedure: as §1, §2

[4] = In vitro stability of Compound 1 in dog plasma; format: in vitro ADME; details: for Concentration of Compound 1 in plasma: 1000 ng/mL added; for half-life at 1000 ng/mL: dog, pooled dog plasma
Procedure: as §1, §2

[5] = In vitro stability of Compound 1 in rabbit plasma; format: in vitro ADME; details: for Concentration of Compound 1 in plasma: 1000 ng/mL added; for half-life at 1000 ng/mL: rabbit, pooled rabbit plasma
Procedure: as §1, §2

[6] = average, read-out: in vitro half-life

CC1(C)CC(OC(=O)C2CC2)CC(C)(C)N1O.Cl [Compound 1, 1-hydroxy-4-cyclopropanecarbonyloxy-2,2,6,6-tetramethylpiperidine hydrochloride]
Concentration of Compound 1 in plasma ([1]; 37° C., incubation 0 min): 0.77547 ± 0.0225 µg/mL | Concentration of Compound 1 in plasma ([1]; 37° C., incubation 5 min): 0.59343 ± 0.00755 µg/mL | Concentration of Compound 1 in plasma ([1]; 37° C., incubation 10 min): 0.50318 ± 0.0209 µg/mL | Concentration of Compound 1 in plasma ([1]; 37° C., incubation 20 min): 0.39469 ± 0.00672 µg/mL | Concentration of Compound 1 in plasma ([1]; 37° C., incubation 30 min): 0.31637 ± 0.00767 µg/mL | Concentration of Compound 1 in plasma ([1]; 37° C., incubation 60 min): 0.16241 ± 0.00977 µg/mL | Concentration of Compound 1 in plasma ([1]; 37° C., incubation 120 min): 0.03222 ± 0.00263 µg/mL | Concentration of Compound 1 in plasma ([1]; 37° C., incubation 240 min): 0 ± 0 µg/mL | half-life at 1000 ng/mL [1, 6]: 28 min | half-life at 1000 ng/mL ([1]; in vitro, 37° C., read-out: T½): 27.8 min | plasma level of Compound 1 at one hour after termination of the infusion ([2]; 10 mg/kg): not quantifiable | Cmax ([2]; both sexes, Sprague-Dawley, rat, 10 mg/kg): 0.981 µg/mL | Cmax ([2]; both sexes, Sprague-Dawley, rat, 30 mg/kg): 3.49 µg/mL | Cmax ([2]; both sexes, Sprague-Dawley, rat, 100 mg/kg): 29 µg/mL | Cmax ([2]; both sexes, Sprague-Dawley, rat, 200 mg/kg): 89.7 µg/mL | concentration at 0.167 hr ([2]; both sexes, Sprague-Dawley, rat, plasma, 10 mg/kg iv infusion, read-out: Plasma concentration of Compound 1): 0.981 ± 0.311 µg/mL | concentration at 1.167 hr ([2]; both sexes, Sprague-Dawley, rat, plasma, 10 mg/kg iv infusion, 1.167 hr, below 50 ng/mL assigned zero, read-out: Plasma concentration of Compound 1): 0 µg/mL | concentration at 2.167 hr ([2]; both sexes, Sprague-Dawley, rat, plasma, 10 mg/kg iv infusion, 2.167 hr, below 50 ng/mL assigned zero, read-out: Plasma concentration of Compound 1): 0 µg/mL | concentration at 4.167 hr ([2]; both sexes, Sprague-Dawley, rat, plasma, 10 mg/kg iv infusion, below 50 ng/mL assigned zero, read-out: Plasma concentration of Compound 1): 0 µg/mL | Tmax ([2]; both sexes, Sprague-Dawley, rat, plasma, 10 mg/kg): 10 min | concentration at 0.167 hr ([2]; both sexes, Sprague-Dawley, rat, plasma, 30 mg/kg iv infusion, read-out: Plasma concentration of Compound 1): 3.49 ± 0.809 µg/mL | concentration at 4.167 hr ([2]; both sexes, Sprague-Dawley, rat, plasma, 30 mg/kg iv infusion, below 50 ng/mL assigned zero, read-out: Plasma concentration of Compound 1): 0 µg/mL | Tmax ([2]; both sexes, Sprague-Dawley, rat, plasma, 30 mg/kg): 10 min | concentration at 0.167 hr ([2]; both sexes, Sprague-Dawley, rat, plasma, 100 mg/kg iv infusion, read-out: Plasma concentration of Compound 1): 29 ± 15.1 µg/mL | concentration at 4.167 hr ([2]; both sexes, Sprague-Dawley, rat, plasma, 100 mg/kg iv infusion, below 50 ng/mL assigned zero, read-out: Plasma concentration of Compound 1): 0 µg/mL | Tmax ([2]; both sexes, Sprague-Dawley, rat, plasma, 100 mg/kg): 10 min | concentration at 0.167 hr ([2]; both sexes, Sprague-Dawley, rat, plasma, 200 mg/kg iv infusion, read-out: Plasma concentration of Compound 1): 89.7 ± 18.1 µg/mL | concentration at 4.167 hr ([2]; both sexes, Sprague-Dawley, rat, plasma, 200 mg/kg iv infusion, below 50 ng/mL assigned zero, read-out: Plasma concentration of Compound 1): 0 µg/mL | Tmax ([2]; both sexes, Sprague-Dawley, rat, plasma, 200 mg/kg): 10 min | clearance of Compound 1 in rats ([2]; suggested by the results, half-life not determinable): very rapid | plasma levels of Compound 1 at four hours after termination of the infusion ([2]; three higher dosages of 30 to 200 mg/kg): not quantifiable | Concentration of Compound 1 in plasma ([3]; 37° C., incubation 0 min): 0.8065 ± 0.08677 µg/mL | Concentration of Compound 1 in plasma ([3]; 37° C., incubation 5 min): 0.77032 ± 0.02066 µg/mL | Concentration of Compound 1 in plasma ([3]; 37° C., incubation 10 min): 0.74577 ± 0.0155 µg/mL | Concentration of Compound 1 in plasma ([3]; 37° C., incubation 20 min): 0.68288 ± 0.01694 µg/mL | Concentration of Compound 1 in plasma ([3]; 37° C., incubation 30 min): 0.61379 ± 0.02584 µg/mL | Concentration of Compound 1 in plasma ([3]; 37° C., incubation 60 min): 0.48048 ± 0.01069 µg/mL | Concentration of Compound 1 in plasma ([3]; 37° C., incubation 120 min): 0.27794 ± 0.00555 µg/mL | Concentration of Compound 1 in plasma ([3]; 37° C., incubation 240 min): 0.0807 ± 0.00202 µg/mL | half-life at 1000 ng/mL [3, 6]: 70 min | half-life at 1000 ng/mL ([3]; in vitro, 37° C., read-out: T½): 69.5 min | Concentration of Compound 1 in plasma ([4]; 37° C., incubation 0 min): 0.77112 ± 0.02168 µg/mL | Concentration of Compound 1 in plasma ([4]; 37° C., incubation 5 min): 0.80493 ± 0.01745 µg/mL | Concentration of Compound 1 in plasma ([4]; 37° C., incubation 10 min): 0.81114 ± 0.02106 µg/mL | Concentration of Compound 1 in plasma ([4]; 37° C., incubation 20 min): 0.80901 ± 0.01858 µg/mL | Concentration of Compound 1 in plasma ([4]; 37° C., incubation 30 min): 0.78953 ± 0.01373 µg/mL | Concentration of Compound 1 in plasma ([4]; 37° C., incubation 60 min): 0.71722 ± 0.02573 µg/mL | Concentration of Compound 1 in plasma ([4]; 37° C., incubation 120 min): 0.60814 ± 0.02596 µg/mL | Concentration of Compound 1 in plasma ([4]; 37° C., incubation 240 min): 0.4282 ± 0.01203 µg/mL | half-life at 1000 ng/mL ([4]; average, read-out: in vitro half-life (converted)): 240 min | half-life at 1000 ng/mL ([4]; in vitro, 37° C., read-out: T½): 240 min | Concentration of Compound 1 in plasma ([5]; 37° C., incubation 0 min): 0.50275 ± 0.07466 µg/mL | Concentration of Compound 1 in plasma ([5]; 37° C., incubation 5 min): 0.01456 ± 0.00335 µg/mL | Concentration of Compound 1 in plasma ([5]; 37° C., incubation 10 min): 0 ± 0 µg/mL | Concentration of Compound 1 in plasma ([5]; 37° C., incubation 20 min): 0 ± 0 µg/mL | Concentration of Compound 1 in plasma ([5]; 37° C., incubation 30 min): 0 ± 0 µg/mL | Concentration of Compound 1 in plasma ([5]; 37° C., incubation 60 min): 0 ± 0 µg/mL | Concentration of Compound 1 in plasma ([5]; 37° C., incubation 120 min): 0 ± 0 µg/mL | Concentration of Compound 1 in plasma ([5]; 37° C., incubation 240 min): 0 ± 0 µg/mL | half-life at 1000 ng/mL [5, 6]: 1 min | half-life at 1000 ng/mL ([5]; in vitro, 37° C., read-out: T½): 0.98 min
